Source: US20260007643A1, “HIGHLY SOLUBLE FORMULATIONS OF HARMINE” (Reconnect Labs AG, priority 2022, published 2026)
Like-named read-outs stand apart in the source and are kept apart here.

Assays:
[1] = Solubility testing of harmine salts (gravimetric, temperature-dependent); type: physicochemical; conditions: for solubility at 48 h: thermodynamic from solid; for Solubility compared with harmine hydrochloride: in words, data in water
Method: Four 250 mL glass jacketed beakers are set up, which are connected with silicone hoses and connected to a Julabo F25 HE thermostat in order to be able to set a constant temperature. In the beakers there is a Pt100 sensor for temperature monitoring, a stopper with a hole that is sealed with play dough and a vial holder with space for four 4 ml vials for a quadruple determination of the solubility. The beakers are located on a strong magnetic stirrer plate so that the temperature is distributed as homogeneously as possible in the liquid medium. Water is used as the medium. The Pt100 sensors and the Julabo are connected to a measuring computer, which controls the Julabo and the temperatures of the Pt100 sensors can be read.
A Sartorius LE26P microbalance with an accuracy of ±0.01 mg is used for the gravimetric determination of the solubility in mass percent.
4 ml vials are filled with 1-2 mL of the respective solvent and equipped with a stirring magnet. The solid to be measured is then added until it is supersaturated. The prepared vials are sealed and placed in the vial holder and equilibrated in the apparatus for 48 hours at the temperature to be examined. After 24 hours, an equilibrium between the solid and liquid phases should have been reached. The liquid phase is removed and transferred to a second vial via a Whatman 20 μm PTFE pre-syringe filter. The tools used, such as the pre-syringe filter, syringe and cannula, are initially cooled or heated to the temperature to be measured. The second vial is first empty, then weighed with the solution and finally evaporated again to ensure constant mass.
At least when the data in water are considered. […] The solubilities are summarized in the table 14 below and in FIGS. 59 and 60: […]

[2] = Polymorph and salt screening: stability and evaluation of solid state forms; type: physicochemical
Source text: The form scNF1 was also created in the course of cooling crystallizations in water/acetone (70/30), (70/30), water/dioxane water/THF (70/30) and water/acetonitrile (70/30). In addition, the form scNF1 was created by gas diffusion crystallizations of water/1,4-dioxane, water/2-propanol and water/acetonitrile. In long-term slurries, scNF1 was successfully produced with acetone/water (80/20) and acetonitrile/water (90/10). Rapid precipitations of the form scNF1 with the antisolvent water are achieved with the solvents acetone and acetonitrile. Form scNF1 can also be crystallized by evaporating the solvent water.
The form scNF1 is Harmine-HCl dihydrate, as could be determined by means of TGA after static storage (RT/100% RH for 7 days). […] A more detailed characterization of the form scNF1 was not requested by the client.
In the course of the screening performed, 14 new solid-phases were detected by using XRPD.

[3] = Blood plasma profiles of harmine and harmol in healthy volunteers; type: in vivo, Human; conditions: ~3.5 mg/kg
[4] = Solubility of harmine in the solvents used in the salt screening; type: physicochemical; conditions: for solubility: organic solvent or mixture
Method: The drug substance Harmine was investigated for a salt screening of different salts by crystallization experiments from various solvents and grinding experiments. Solubility experiments were also conducted before starting the salt screening.
In the following table 3, the different solvents used in the salt screening are summarized.

[5] = molecular target: T1, monoamine oxidase A (MAO-A) (Homo sapiens, UniProt P21397); conditions: cited from earlier work
T1 sequence (P21397 1-527): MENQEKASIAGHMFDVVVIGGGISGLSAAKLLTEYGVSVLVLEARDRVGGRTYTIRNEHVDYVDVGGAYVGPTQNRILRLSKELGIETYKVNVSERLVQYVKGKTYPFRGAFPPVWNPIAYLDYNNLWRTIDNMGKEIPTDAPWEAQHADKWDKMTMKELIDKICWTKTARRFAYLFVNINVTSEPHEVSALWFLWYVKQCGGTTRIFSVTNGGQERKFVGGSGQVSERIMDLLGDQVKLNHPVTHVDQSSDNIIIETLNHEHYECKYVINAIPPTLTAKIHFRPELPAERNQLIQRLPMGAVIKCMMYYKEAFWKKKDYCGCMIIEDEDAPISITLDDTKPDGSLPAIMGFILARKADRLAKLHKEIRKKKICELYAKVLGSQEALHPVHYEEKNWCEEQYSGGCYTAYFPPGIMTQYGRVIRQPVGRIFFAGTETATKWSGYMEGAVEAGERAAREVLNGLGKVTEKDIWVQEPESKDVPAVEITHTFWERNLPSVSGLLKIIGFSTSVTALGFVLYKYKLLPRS

[6] = molecular target: T2, monoamine oxidase B (MAO-B) (Homo sapiens, UniProt P27338); conditions: cited from earlier work
T2 sequence (P27338 1-520): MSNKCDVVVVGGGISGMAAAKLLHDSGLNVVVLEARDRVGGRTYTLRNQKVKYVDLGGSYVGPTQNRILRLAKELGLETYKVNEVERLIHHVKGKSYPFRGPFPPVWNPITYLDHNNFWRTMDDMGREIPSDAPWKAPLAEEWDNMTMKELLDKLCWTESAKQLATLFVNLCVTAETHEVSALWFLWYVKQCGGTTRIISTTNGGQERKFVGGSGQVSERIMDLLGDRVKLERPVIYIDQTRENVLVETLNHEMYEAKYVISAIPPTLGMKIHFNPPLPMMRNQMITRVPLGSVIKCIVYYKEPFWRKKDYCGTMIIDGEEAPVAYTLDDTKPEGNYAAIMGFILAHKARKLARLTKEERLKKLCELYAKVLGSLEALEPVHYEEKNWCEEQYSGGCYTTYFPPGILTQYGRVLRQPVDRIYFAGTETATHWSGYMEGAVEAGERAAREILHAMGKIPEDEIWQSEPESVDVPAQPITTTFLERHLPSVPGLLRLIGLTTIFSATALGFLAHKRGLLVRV

[7] = first pKa value; cited from earlier work
[8] = Method: Thus, the present inventors performed an additional screening, in which different compositions of harmine were manufactured and their solubility in water was examined.
To this end, in a first experiment 1 g of harmine freebase was added to […] of dH2O to yield a final concentration of 20% (w/w). Then, the acids mentioned above were individually added to the solution in different molar rations (e.g. 1:1 or 2:1) and it was examined, whether the acids can solubilize harmine freebase by protonation or complex formation.

[9] = pKa and solubility data of harmine and the acids used in the salt screening; type: physicochemical
[10] = Solubility of harmine glucuronate for loading of TIP particles; type: physicochemical
Source text: Loading harmine or its salt into TIP particles: FIG. 12 depicts SEM images of unsuccessful TIP loading with Harmine HCl (A; 1% in EtOH) and successful loadings with Harmine HCl (B; 0.1% in EtOH) and Harmine Glucuronate (C; 25% in H2O). As shown, TIP particles can be loaded with Harmine HCl, but only when using very low substance concentrations (0.1%) in an organic solvent such as EtOH. Loading with higher concentrations (1%) leads to external crystallization. Moreover, using H2O as solvent, triggers the rapid precipitation of HRM HCl as freebase, when it is exposed to basic residues within the TIP particles. […] Regarding the latter point, it could be shown that the loading process of the TIP particles is most efficient, when adding highly concentrated drug substance solutions (either in EtOH, H2O or DMSO) to the particles. Loading TIP particles with harmine glucuronate yielded exceptional results. […] It is thought that this property of HRM GLU is caused by its highly amorphous structure, leading to less crystallization compared to HRM HCl (which crystallizes readily as freebase, especially when exposed to basic residues within the TIP particles).
Thus, harmine glucuronate is very practical to handle on a large scale (e.g. up to 1 Kg of HRM GLU can be dissolved in 1 L of water), yields very efficient loading of the TIP particles.

[11] = Dose-response study of DMT and harmine in healthy subjects: harmine PK profiles; conditions: 180 mg harmine with 90 mg DMT formulated in TIP, ODTs sublingual in 3 dosing intervals every 20 minutes, two subjects
[12] = ethanol, organic solvent or mixture, EtOH, 25° C., read-out: Solubility at 25° C. (EtOH)
[13] = ethanol, organic solvent or mixture, EtOH, 37° C., read-out: Solubility at 37° C. (EtOH)
[14] = water, H2O, 25° C., read-out: Solubility at 25° C. (H2O)
[15] = water, H2O, 37° C., read-out: Solubility at 37° C. (H20)

COc1ccc2c(c1)[nH]c1c(C)nccc12.Cl [Harmine HCl, reference compound]
solubility at 48 h [1, 12]: 6790 µg/mL | solubility at 48 h [1, 13]: 7950 µg/mL | solubility at 48 h [1, 14]: 24900 µg/mL | solubility at 48 h [1, 15]: 53100 µg/mL | Solid form change on static storage ([2]; RT/100% RH for 7 days): converts to the form scNF1 | Cmax ([3]; human, plasma, oral administration): ~80 ng/mL | Harmine plasma level ([3]; oral capsule, 10 healthy volunteers): ~80 ng/mL

COc1ccc2c(c1)[nH]c1c(C)nccc12 [Harmine, 7-methoxy-1-methyl-9H-pyrido[3,4-b]-indole]
solubility ([4]; 2-picoline): 10 mg/mL | Solubility in solvent ([4]; 95% methanol | 5% water): almost resolved | Anti-Solvent practically insoluble ([4]; dimethyl carbonate, THF, acetonitrile, methanol, acetone, MEK, dichloromethane (25° C. | 45° C.), chloroform, 1,4-dioxane, water, veratrol, p-xylene, sulfolane, benzonitrile, 95% acetonitrile | 5% water (45° C.), 95% acetone | 5% water (45° C.)): practically insoluble | solubility ([4]; dimethyl sulfoxide (DMSO)): 13 mg/mL | solubility ([4]; dimethylformamide (DMF), dimethylformamid (DMF), souble): 33 mg/mL | solubility ([4]; methanol, 45 °C): 12 mg/mL | solubility ([4]; 1-methyl-2-pyrrolidone (NMP), souble): 80 mg/mL | solubility ([4]; dimethylacetamide, souble): 40 mg/mL | solubility ([4]; tetramethylurea, souble): 40 mg/mL | solubility ([4]; pyridine): 205 mg/mL | Inhibition of MAO-A [5]: reversibly inhibits | Inhibition of MAO-B [6]: does not inhibit | pka (½) [7]: 7.45

O=C(O)[C@@H](O)[C@H](O)[C@H](O)[C@@H](O)C(=O)O [mucic acid]
Ability of the acid to solubilize harmine freebase [8]: not able to solubilize harmine

COc1ccc2c(c1)[nH]c1c(C)nccc12.Cl.O.O [Harmine-HCl dihydrate]
Solid form stability at ambient conditions ([2]; after 5 weeks at ambient conditions, powder diffractogram): traces of Harmine-HCl were identified

D-glucuronic acid
Ability of the acid to solubilize harmine freebase ([8]; 1 g harmine freebase in 5 g dH2O (20% w/w), acid added in molar ratios e.g. 1:1 or 2:1): highest solubility

L(−)-Malic acid
ΔpKa ([9]; harmine pKa 7.45 versus first pKa of the acid): 3.99 | ΔpKa ([9]; harmine pKa 7.45 versus second pKa of the acid): 2.35

COc1ccc2c(c1)[nH]c1c(C)nccc12.O=P(O)(O)O [Harmine Phosphate]
solubility at 48 h [1, 12]: 580 µg/mL | solubility at 48 h [1, 13]: 550 µg/mL | Solubility compared with harmine hydrochloride ([1]; listed as Harmine-Phosphate, Phosphate): do not show any better solubility properties | Solubility compared with harmine hydrochloride ([1]; listed as harmine phosphate, Phosphate): significantly worse | solubility at 48 h [1, 14]: 11000 µg/mL | solubility at 48 h [1, 15]: 12900 µg/mL | Evaluation/Remarks: solubility in deuterated solvents ([2]; any deuterated solvent): Since the new form does not show sufficient solubility

O=C(O)[C@H](O)[C@@H](O)[C@H](O)[C@H](O)CO [D-gluconic acid]
Solubility of harmine with the acid [8]: higher than 15%

Harmine Glucuronate
Gravimetric solubility relative to harmin hydrochloride ([1]; 25° C.): about eight times | Solubility at 25° C. (EtOH) ([1]; EtOH, 25° C.): 4.25 mg/mL | Solubility at 37° C. (EtOH) ([1]; EtOH, 37° C.): 7.93 mg/mL | Solubility at 25° C. (H2O) ([1]; H2O, 25° C.): 405.95 mg/mL | Solubility at 37° C. (H20) ([1]; H2O, 37° C.): 549.52 mg/mL | Solubility compared with harmine hydrochloride [1]: extremely improved solubility | ΔpKs value of harmine and glucuronic acid [9]: 4.27 | Harmine concentration readily feasible in water ([8]; harmine + equimolar glucuronic acid in deionized water, 1 g harmine in 5 mL final volume): > 20% | Solubility in H2O ([10]; H2O, RT): ~45% | Amount that can be dissolved in 1 L of water ([10]; in 1 L of water): up to 1 Kg | Bioavailability of harmine (plasma PK profiles) [11]: bioavailable
